Measured values reported in patent US20120041305A1, “LIGHT-EMITTING DYE FOR INTRAOPERATIVE IMAGING OR SENTINEL LYMPH NODE BIOPSY” (THE UNIVERSITY OF UTAH RESEARCH FOUNDATION, priority 2009, published 2012).
Read-outs that look alike come from different tables or passages of the source.

Key:
[1] = Porcine model of lymphatic mapping (intradermal limb injection); type: in vivo, swine
[2] = cited from earlier work
[3] = vital blue dye alone, intradermal; cited from earlier work
[4] = Human melanoma clinical trial, intraoperative sentinel lymph node fluorescence; type: in vivo; details: 0.001%, 1 ml intradermally in 4 locations, 3 out of 5 patients
Experimental: Patients with cutaneous malignant melanoma with a Breslow thickness of 0.75 mm or greater, or Clark level IV/V involvement, or ulceration were enrolled in the trial. All patients underwent preoperative lymphoscintigraphy with 99m-Technetium labeled sulfur colloid up to 24 hours before the operation. The normally used intraoperative vital blue dye was replaced by fluorescein. The initial starting dose of fluorescein was 0.001% and 1 ml was injected intradermally intraoperatively in 4 locations around the melanoma biopsy site. At this does, sentinel lymph node fluorescence was identified in 3 out of 5 patients (60%). […] The 0.01% dose was used in the subsequent phase II study.

[5] = 1,047 patients, intradermal, 10% fluorescein mixed 1:1 with 1% lidocaine hydrochloride; cited from earlier work
[6] = 120 colon cancer patients, intramural bowel injection; cited from earlier work

SMILES	forelimb injections leading to a SLN ([1]; swine forelimb, injected four times)	patients with anaphylactoid reaction or life threatening anaphylactic shock ([2]; 1% dye, lymphatic mapping and SLNB)	chance of a life-threatening anaphylactic event caused by injection ([2]; human, in vivo) [%]	cases in which the SLN can be identified [3]	patients with sentinel lymph node fluorescence identified [4] [%]	forelimb injections developing visible fluorescence leading to a SLN ([1]; swine forelimb, one of seven injections) [%]	hindlimb injections showing lymphatic trunks under the skin leading to the SLN ([1]; swine hindlimb, nine of ten injections) [%]	adverse reactions [5]	adverse reactions [6]
CCN(CC)c1ccc(C(=C2C=CC(=[N+](CC)CC)C=C2)c2cc(S(=O)(=O)[O-])ccc2S(=O)(=O)[O-])cc1.[Na+] [Lymphazurin, isosulfan blue]	failed to lead to a SLN	0.1-2%	1	approximately 87%	–	–	–	–	–
O=C1OC2(c3ccc(O)cc3Oc3cc(O)ccc32)c2ccccc21 [fluorescein, Fluorescein]	–	–	–	–	60	14	90	without adverse reactions	none of the 120 patients suffered any adverse reactions
